Results published in patent publication US20110014174A1, “Lysozyme, A Novel Vasodilator of Sepsis that can be inhibited by a Peroxidase and Hydroxyl Radical Scavengers” (UNIVERSITY OF MANITOBA, priority 2007, published 2011).

Tests used:
[1] = test system: phenylephrine contracted canine carotid artery ring preparation; assay: Contraction force and vasorelaxation in phenylephrine contracted canine carotid artery ring preparation; settings: before Lzm-S
[2] = test system: Lzm-S-induced carotid artery vasodilation; assay: Prevention of Lzm-S-induced vasodilation by pretreatment agents in the carotid artery ring preparation; parameters: species or system canine; settings: for contraction after Lzm-S relative to the post-indomethacin plateau: indomethacin 10^−6 mol/L treated group (n=5); for inhibition of Lzm-S-induced vasodilation (words): pretreatment with the agent, human Lzm-S 6.7×10^−7 mol/L, phenylephrine contracted ring; for contraction after Lzm-S, % of the butanol-plateau: n-butanol pretreated

Row | Compound | force over 30 minutes when indomethacin was added ([1]; indomethacin 10^−6 mol/L after phenylephrine) [grams] | contraction after Lzm-S relative to the post-indomethacin plateau ([2]; 5 minutes) [%] | contraction after Lzm-S relative to the post-indomethacin plateau ([2]; 15 minutes) [%] | contraction after Lzm-S relative to the post-indomethacin plateau ([2]; 30 minutes) [%] | inhibition of Lzm-S-induced vasodilation (words) [2] | force after the alcohol was added, % of the phenylephrine-plateau response ([1]; n-butanol (10^−7 mol/L)) [%] | contraction after Lzm-S, % of the butanol-plateau ([2]; 5 minutes) [%] | contraction after Lzm-S, % of the butanol-plateau ([2]; 15 minutes) [%] | contraction after Lzm-S, % of the butanol-plateau ([2]; 30 minutes) [%]
1 | COc1ccc2c(c1)c(CC(=O)O)c(C)n2C(=O)c1ccc(Cl)cc1 [indomethacin] | 5.6±0.5 | 79±11 | 57±24 | 39±25 | did not Prevent Vasodilation | – | – | – | –
2 | CCCCO [n-butanol] | – | – | – | – | no inhibitory effect | 61±17 | 84±9 | 62±21 | 23±27
